Marks after values point to notes of the source that are not given here.
Key:
cyp1a1 = experiment: qRT-PCR transcriptional alteration in zebrafish embryos; type: in vivo; conditions: single chemical 10 ng/mL, 6 days, normalized to β-actin
Description: (§1) To verify the developmental effects in zebrafish embryos caused by exposure to realistic mixtures, mixture toxicity tests with zebrafish embryos were performed at a range of environmentally relevant concentrations, and three exposure concentrations at a 1:1 mixing ratio (i.e., 1, 10, and 100 ng/mL of each chemical). […] Realistic mixture toxicity tests using zebrafish embryos were performed under the same conditions as the single-toxicity tests.
(§2) To examine the transcriptional alteration of target genes linked to zebrafish embryonic development, The total RNA from 20 zebrafish embryos was extracted using a RNeasy Mini kit (Qiagen, Hilden, Germany), following the manufacturer’s instructions. The total RNA concentration was measured spectrophoto-metrically at 260/280 nm using a Gen5™ spectrophotometer (BioTek®, Winooski, VT, United States). […]
(§3) The primer sequences for target genes were designed to use for quantitative real-time polymerase chain reaction (qRT–PCR): namely aryl hydrocarbon receptor 2 (ahr2), cytochrome P450 monooxygenases (i.e., cyp1a1 and cyp1b1), nuclear factor erythroid 2-related factors (i.e., nrf1a and nrf2a), tumor suppressor gene (p53), thyroid stimulating hormone beta subunit (tsh-β), and thyroid hormone receptors (i.e., thraa and thrb) (Supplementary Table S1) ([Fan et al., 2018]; [Liu et al., 2011]; [Ren et al., 2020]; [Williams et al., 2013]). […]

cyp1b1 = experiment: as above; type: in vivo; conditions: single chemical 10 ng/mL, 6 days, normalized to β-actin
Description: as §1, §2, §3

zebrafish embryos [1] = experiment: Realistic mixture toxicity test, embryonic toxicity; type: in vivo; conditions: single chemical 10 ng/mL, 6 days after exposure
Description: (§4) Zebrafish embryos were obtained from adult zebrafish continuously sub-cultured in Korea Institute Toxicology Laboratory, Republic of Korea and were maintained at 26°C ± 1°C in a climate chamber (16 h daylight: 8 h darkness) until use for toxicity tests ([Park et al., 2022]). […] At 6 days after exposure, embryonic toxicity (%) was scored as follows: [embryonic toxicity (%) = lethality (dead embryo + dead larva) + abnormality (unhatched eggs + abnormal larva)/initial embryos × 100]. Developmental abnormality of zebrafish was investigated based on apical phenotypic observation, such as coagulated embryos, lack of somite formation, non-detachment of the tail, and lack of heartbeat for 6 days after exposure ([OECD, 2013]). Embryonic toxicity (%) was used for estimating the effective concentration values (ECx) for each chemical and 95% confidence limits, by concentration-response curves (CETIS program version 1.8.7.15, Tidepool Scientific Software, United States) ([Park et al., 2022]).
To verify the developmental effects in zebrafish embryos caused by exposure to realistic mixtures, mixture toxicity tests with zebrafish embryos were performed at a range of environmentally relevant concentrations, and three exposure concentrations at a 1:1 mixing ratio (i.e., 1, 10, and 100 ng/mL of each chemical). […]

zebrafish embryos [2] = experiment: Single toxicity test for zebrafish embryos (ECx); type: in vivo; conditions: for EC50: Danio rerio, 144 h, read-out: EC50 (95% CI); for EC50 / EC5 (95% CI) / EC15 (95% CI) / EC25 (95% CI): embryonic toxicity (lethality + abnormality), embryo-larva stage, 6 days exposure, probit; for toxicity to zebrafish embryos, individually: at high concentrations, 500 and 1,000 μg/mL
Description: as §4

sheepshead minnow = conditions: acute toxicity, ref Gibbons et al., 2015; cited from earlier work
[3] = ref Mason et al., 2013, cited from earlier work

SMILES	Relative fold change of gene expression, cyp1a1 (cyp1a1)	Relative fold change of gene expression, cyp1b1 (cyp1b1)	Embryonic toxicity (%) (zebrafish embryos [1])	EC50 (zebrafish embryos [2])	toxicity to zebrafish embryos, individually (zebrafish embryos [2])	EC5 (95% CI) (zebrafish embryos [2])	EC15 (95% CI) (zebrafish embryos [2])	EC25 (95% CI) (zebrafish embryos [2])	50% lethal concentration (LC50) (sheepshead minnow)	half-life in sediment ([3]; sediment)	half-life in soil ([3]; soil)
CN/C(=N\[N+](=O)[O-])NCc1cnc(Cl)s1 [CLO, Clothianidin]	0.38±0.06^a	1.36±0.34^a	12.5 ± 3.4%	411 µg/mL	toxic	65.28 (N.C.–104.61) µg/mL	255.72 (224.61–289.12) µg/mL	292.89 (247.77–332.07) µg/mL	161 µg/mL	56 days	up to 1,386 days
O=[N+]([O-])NC1=NCCN1Cc1ccc(Cl)nc1 [IMD, imidacloprid]			12.5 ± 2.8%	268 µg/mL	toxic	60.80 (N.C.–108.36) µg/mL	145.69 (113.89–158.99) µg/mL	175.04 (146.25–196.54) µg/mL	93.6 µg/mL		

Source: paper PMC11445189 (Frontiers in Toxicology, 2024)
